The source made the active and inactive calls. No stated cut-off is given here; in the data, actives have a measured IC50 and inactives only a lower limit.
Experiments:
Type in all cases: functional
[1] = target: T1, Sentrin-specific protease 6 (Homo sapiens, UniProt Q9GZR1);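 further: Luminescence-based dose-response confirmatory assay of SENP6 inhibition, following up an ultra-high-throughput screen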
T1 sequence (Q9GZR1 whole entry): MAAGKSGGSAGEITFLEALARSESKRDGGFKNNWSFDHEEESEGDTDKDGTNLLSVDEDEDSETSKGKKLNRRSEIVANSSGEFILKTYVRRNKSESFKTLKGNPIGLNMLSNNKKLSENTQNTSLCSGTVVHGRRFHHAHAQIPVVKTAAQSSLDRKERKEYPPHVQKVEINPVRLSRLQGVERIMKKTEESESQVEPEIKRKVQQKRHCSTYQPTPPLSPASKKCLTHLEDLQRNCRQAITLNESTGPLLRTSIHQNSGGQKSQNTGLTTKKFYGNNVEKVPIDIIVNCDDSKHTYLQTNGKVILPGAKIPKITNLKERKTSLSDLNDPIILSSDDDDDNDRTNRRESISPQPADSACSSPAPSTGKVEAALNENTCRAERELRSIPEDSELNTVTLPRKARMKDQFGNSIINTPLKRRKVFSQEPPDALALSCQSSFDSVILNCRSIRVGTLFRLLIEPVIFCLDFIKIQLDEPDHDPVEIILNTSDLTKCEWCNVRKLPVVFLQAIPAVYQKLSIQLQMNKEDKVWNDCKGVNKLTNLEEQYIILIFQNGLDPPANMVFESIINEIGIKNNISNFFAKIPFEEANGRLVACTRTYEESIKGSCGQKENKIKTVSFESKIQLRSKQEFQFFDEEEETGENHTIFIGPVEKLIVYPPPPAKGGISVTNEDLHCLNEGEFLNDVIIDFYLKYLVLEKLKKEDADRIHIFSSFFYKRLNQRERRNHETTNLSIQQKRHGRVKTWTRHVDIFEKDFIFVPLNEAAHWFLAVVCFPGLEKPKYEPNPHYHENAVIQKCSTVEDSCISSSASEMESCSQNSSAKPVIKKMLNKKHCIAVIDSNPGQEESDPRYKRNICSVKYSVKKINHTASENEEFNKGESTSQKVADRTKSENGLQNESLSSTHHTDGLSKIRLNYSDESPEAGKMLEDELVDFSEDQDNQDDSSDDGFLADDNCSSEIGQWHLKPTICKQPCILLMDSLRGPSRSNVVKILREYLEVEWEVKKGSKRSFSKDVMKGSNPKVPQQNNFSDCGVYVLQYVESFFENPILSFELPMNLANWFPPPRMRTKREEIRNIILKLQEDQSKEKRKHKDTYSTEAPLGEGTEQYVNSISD

[2] = target: T2, Sentrin-specific protease 7 (Homo sapiens, UniProt Q9BQF6);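 further: Luminescence-based dose-response confirmation of ultra-high-throughput screening hits, measuring inhibition of SENP7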
T2 sequence (Q9BQF6 whole entry): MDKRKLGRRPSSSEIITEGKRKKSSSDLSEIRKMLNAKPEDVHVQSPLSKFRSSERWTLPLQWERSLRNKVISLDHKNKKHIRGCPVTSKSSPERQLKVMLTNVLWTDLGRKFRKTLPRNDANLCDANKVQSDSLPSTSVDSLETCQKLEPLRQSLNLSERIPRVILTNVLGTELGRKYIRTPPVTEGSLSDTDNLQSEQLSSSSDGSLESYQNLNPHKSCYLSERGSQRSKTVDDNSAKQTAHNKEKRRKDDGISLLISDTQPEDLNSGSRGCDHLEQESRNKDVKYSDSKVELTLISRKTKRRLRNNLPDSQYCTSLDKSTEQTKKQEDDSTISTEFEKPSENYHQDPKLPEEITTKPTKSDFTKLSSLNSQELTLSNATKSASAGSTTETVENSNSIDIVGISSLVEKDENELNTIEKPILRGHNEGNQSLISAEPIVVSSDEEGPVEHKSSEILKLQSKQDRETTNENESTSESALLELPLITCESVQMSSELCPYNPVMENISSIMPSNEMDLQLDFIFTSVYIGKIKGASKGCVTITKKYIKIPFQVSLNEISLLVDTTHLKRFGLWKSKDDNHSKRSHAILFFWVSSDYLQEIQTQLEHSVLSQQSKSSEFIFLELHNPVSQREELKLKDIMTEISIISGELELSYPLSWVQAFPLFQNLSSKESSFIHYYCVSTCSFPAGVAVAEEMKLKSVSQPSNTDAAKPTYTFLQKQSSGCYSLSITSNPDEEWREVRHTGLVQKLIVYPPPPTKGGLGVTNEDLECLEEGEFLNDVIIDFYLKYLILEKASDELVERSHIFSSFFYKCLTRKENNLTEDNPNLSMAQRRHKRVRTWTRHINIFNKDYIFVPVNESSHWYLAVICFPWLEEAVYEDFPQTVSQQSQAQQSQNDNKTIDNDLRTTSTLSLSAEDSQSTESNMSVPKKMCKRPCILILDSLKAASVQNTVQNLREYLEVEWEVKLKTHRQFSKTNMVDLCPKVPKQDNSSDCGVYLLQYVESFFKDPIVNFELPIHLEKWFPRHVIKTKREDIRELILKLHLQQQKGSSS

[3] = target: T3, Caspase-3 (Homo sapiens, UniProt P42574);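 further: Dose-response selectivity test against caspase-3 for candidate inhibitors of sentrin-specific proteases (SENPs)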
T3 sequence (P42574 whole entry): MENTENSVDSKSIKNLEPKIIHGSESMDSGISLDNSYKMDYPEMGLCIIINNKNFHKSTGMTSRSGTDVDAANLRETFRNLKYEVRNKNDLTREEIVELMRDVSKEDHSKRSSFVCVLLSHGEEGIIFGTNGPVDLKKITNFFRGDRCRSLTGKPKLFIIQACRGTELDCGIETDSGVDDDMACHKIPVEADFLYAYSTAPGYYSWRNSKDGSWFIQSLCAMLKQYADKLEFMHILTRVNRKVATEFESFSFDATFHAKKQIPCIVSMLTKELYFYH

[4] = target: T4, Sentrin-specific protease 8 (Homo sapiens, UniProt Q96LD8);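 further: luminescence read-out of SENP8 inhibition, dose-response confirmation following an ultra-high-throughput screen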
T4 sequence (Q96LD8 whole entry): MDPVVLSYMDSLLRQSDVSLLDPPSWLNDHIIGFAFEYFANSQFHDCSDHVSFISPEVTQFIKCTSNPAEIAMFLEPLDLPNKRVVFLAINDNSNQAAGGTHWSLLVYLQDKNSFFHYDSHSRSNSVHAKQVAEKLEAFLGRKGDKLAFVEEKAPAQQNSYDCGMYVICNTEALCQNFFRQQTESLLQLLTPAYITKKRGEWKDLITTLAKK

Structure (SMILES) | IC50 [1] | IC50 [2] | IC50 [3] | IC50 [4]
COc1ccc(/C=N/Nc2cc(N(C)C)nc(N(C)C)n2)cc1 | 5.62 µM (active) | 54.5 µM (active) | > 100 µM (inactive) | 5.78 µM (active)
C/C(=N\c1cccc(C)c1)c1sc2ccccc2c1O | 12.7 µM (active) | 4.75 µM (active) | 17.4 µM (active) | 10.7 µM (active)

— ChEMBL document CHEMBL1201862, “PubChem BioAssay data set” (2004)
